Measurements taken from BindingDB's records for doi:10.1021/jm980023c (F. Hoffmann-La Roche, 1998).

How the values were obtained:
[1] = molecular target: Beta-lactamase TEM-3 (Escherichia coli); assay: Inhibitory activity against Escherichia coli TEM-3 Beta-lactamase
Beta-lactamase = Beta-lactamase (Pseudomonas aeruginosa (strain ATCC 15692 / DSM 22644 / CIP 104116 / JCM 14847 / LMG 12228 / 1C / PRS 101 / PAO1), UniProt P24735); assay: Deacylation of 18SH Beta-lactamase of Pseudomonas aeruginosa
Chain of Beta-lactamase (P24735 whole entry): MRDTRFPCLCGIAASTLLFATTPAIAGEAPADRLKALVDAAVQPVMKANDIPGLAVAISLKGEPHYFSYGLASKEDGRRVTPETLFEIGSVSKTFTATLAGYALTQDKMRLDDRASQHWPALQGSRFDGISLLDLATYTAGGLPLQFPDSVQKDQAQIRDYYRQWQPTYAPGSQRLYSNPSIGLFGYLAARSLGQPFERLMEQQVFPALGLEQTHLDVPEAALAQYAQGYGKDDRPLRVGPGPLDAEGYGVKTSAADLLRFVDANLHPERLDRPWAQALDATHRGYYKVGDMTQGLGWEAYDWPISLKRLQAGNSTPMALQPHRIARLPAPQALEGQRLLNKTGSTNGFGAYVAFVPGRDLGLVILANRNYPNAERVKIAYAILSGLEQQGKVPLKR

SMILES	IC50 [1]	koff (Beta-lactamase)
NC(=O)c1ccc[n+](CC(=O)N2CC[C@@H]3[C@H]2C(=O)N3S(=O)(=O)[O-])c1	0.7 µM	–
Cn1nnnc1S[C@@H]1CN(C(=O)OCc2ccccc2)[C@@H]2C(=O)N(S(=O)(=O)O)[C@@H]21 [Sodium; (1S,4R,5S)-2-benzyloxycarbonyl-4-(1-methyl-1H-tetrazol-5-ylsulfanyl)-7-oxo-2,6-diaza-bicyclo[3.2.0]heptane-6-sulfonate]	0.035 µM	–
O=C(OCc1ccccc1)N1C[C@H](F)[C@@H]2[C@H]1C(=O)N2S(=O)(=O)O [Sodium; (1S,4S,5S)-2-benzyloxycarbonyl-4-fluoro-7-oxo-2,6-diaza-bicyclo[3.2.0]heptane-6-sulfonate]	0.511 µM	–
NC(=O)c1cccc(NC(=O)N2CC[C@@H]3[C@H]2C(=O)N3S(=O)(=O)O)c1 [Sodium; (1S,5R)-2-(3-carbamoyl-phenylcarbamoyl)-7-oxo-2,6-diaza-bicyclo[3.2.0]heptane-6-sulfonate]	4 µM	–
NC(=O)c1ccc(NC(=O)N2CC[C@@H]3[C@H]2C(=O)N3S(=O)(=O)O)cc1 [Sodium; (1S,5R)-2-(4-carbamoyl-phenylcarbamoyl)-7-oxo-2,6-diaza-bicyclo[3.2.0]heptane-6-sulfonate]	> 100 µM	–
O=C(Nc1ccc(O)cc1)N1CC[C@@H]2[C@H]1C(=O)N2S(=O)(=O)O [Sodium; (1S,5R)-2-(4-hydroxy-phenylcarbamoyl)-7-oxo-2,6-diaza-bicyclo[3.2.0]heptane-6-sulfonate]	> 100 µM	–
Cn1ccnc1SCC(=O)N1CC[C@@H]2[C@H]1C(=O)N2S(=O)(=O)O [Sodium; (1S,5R)-2-[2-(1-methyl-1H-imidazol-2-ylsulfanyl)-acetyl]-7-oxo-2,6-diaza-bicyclo[3.2.0]heptane-6-sulfonate]	> 100 µM	–
Cn1nnnc1SCC(=O)N1CC[C@@H]2[C@H]1C(=O)N2S(=O)(=O)O [Sodium; (1S,5R)-2-[2-(1-methyl-1H-tetrazol-5-ylsulfanyl)-acetyl]-7-oxo-2,6-diaza-bicyclo[3.2.0]heptane-6-sulfonate]	> 100 µM	–
Cc1nn(C)c(SCC(=O)N2CC[C@@H]3[C@H]2C(=O)N3S(=O)(=O)O)nc1=O [Sodium; (1S,5R)-2-[2-(2,6-dimethyl-5-oxo-2,5-dihydro-[1,2,4]triazin-3-ylsulfanyl)-acetyl]-7-oxo-2,6-diaza-bicyclo[3.2.0]heptane-6-sulfonate]	> 100 µM	–
O=C(CNc1ccc(O)cc1)N1CC[C@@H]2[C@H]1C(=O)N2S(=O)(=O)O [Sodium; (1S,5R)-2-[2-(4-hydroxy-phenylamino)-acetyl]-7-oxo-2,6-diaza-bicyclo[3.2.0]heptane-6-sulfonate]	79.2 µM	–
Cn1cnnc1SCC(=O)N1CC[C@@H]2[C@H]1C(=O)N2S(=O)(=O)O [Sodium; (1S,5R)-2-[2-(4-methyl-4H-[1,2,4]triazol-3-ylsulfanyl)-acetyl]-7-oxo-2,6-diaza-bicyclo[3.2.0]heptane-6-sulfonate]	> 100 µM	–
NC(C(=O)N1CC[C@@H]2[C@H]1C(=O)N2S(=O)(=O)O)c1ccc(O)cc1 (stereo partly drawn) [Sodium; (1S,5R)-2-[2-amino-2-(4-hydroxy-phenyl)-acetyl]-7-oxo-2,6-diaza-bicyclo[3.2.0]heptane-6-sulfonate]	> 100 µM	–
NC(=O)/C=C1\CN(C(=O)OCc2ccccc2)[C@@H]2C(=O)N(S(=O)(=O)O)[C@H]12 [Sodium; (1S,5R)-2-benzyloxycarbonyl-4-[1-carbamoyl-meth-(E)-ylidene]-7-oxo-2,6-diaza-bicyclo[3.2.0]heptane-6-sulfonate]	0.031 µM	–
O=C(OCc1ccccc1)N1CC[C@@H]2[C@H]1C(=O)N2S(=O)(=O)O [Sodium; (1S,5R)-2-benzyloxycarbonyl-7-oxo-2,6-diaza-bicyclo[3.2.0]heptane-6-sulfonate]	> 100 µM	–
CC(C)(C)OC(=O)N1CC[C@@H]2[C@H]1C(=O)N2S(=O)(=O)O [Sodium; (1S,5R)-2-tert-butoxycarbonyl-7-oxo-2,6-diaza-bicyclo[3.2.0]heptane-6-sulfonate]	> 100 µM	0.000037 s⁻¹
NC(=O)Nc1ccc(NC(=O)N2CC[C@@H]3[C@H]2C(=O)N3S(=O)(=O)O)cc1 [Sodium; (1S,5R)-7-oxo-2-(4-ureido-phenylcarbamoyl)-2,6-diaza-bicyclo[3.2.0]heptane-6-sulfonate]	100 µM	–
O=C1NCC[C@@H]1NC(=O)N1CC[C@@H]2[C@H]1C(=O)N2S(=O)(=O)O [Sodium; (1S,5R)-7-oxo-2-((S)-2-oxo-pyrrolidin-3-ylcarbamoyl)-2,6-diaza-bicyclo[3.2.0]heptane-6-sulfonate]	> 100 µM	–
O=C(NC1CCNCC1)N1CC[C@@H]2[C@H]1C(=O)N2S(=O)(=O)O [Sodium; (1S,5R)-7-oxo-2-(piperidin-4-ylcarbamoyl)-2,6-diaza-bicyclo[3.2.0]heptane-6-sulfonate]	> 100 µM	0.0012 s⁻¹
CC(C)(C)OC(=O)N1CCC[C@@H]2[C@H]1C(=O)N2S(=O)(=O)O [Sodium; (1S,6R)-2-tert-butoxycarbonyl-8-oxo-2,7-diaza-bicyclo[4.2.0]octane-7-sulfonate]	> 100 µM	0.0007 s⁻¹
